Test results taken from patent US20230233500A1, “Gasdermin D (GSDMD) Succination for the Treatment of Inflammatory Disease” (University of Massachusetts, priority 2020, published 2023).
Entries after “also recorded” stand apart in the source; their conditions may differ. Structures can show the parent of a compound that is named as a salt. Where two headings read alike, the source gives them in different places.

Assays:
[1] = molecular target: T1, GSDMD (Mus musculus, UniProt Q9D8T2); assay: Tandem MS of GSDMD immunoprecipitated from treated BMDMs; assay type: cell-based; conditions: GSDMD immunoprecipitated from fumarate treated BMDMs
T1 construct: We also immunoprecipitated GSDMD from fumarate treated BMDMs; endogenous in cells; host or cells: primary mouse BMDMs
T1 sequence (Q9D8T2 1-487): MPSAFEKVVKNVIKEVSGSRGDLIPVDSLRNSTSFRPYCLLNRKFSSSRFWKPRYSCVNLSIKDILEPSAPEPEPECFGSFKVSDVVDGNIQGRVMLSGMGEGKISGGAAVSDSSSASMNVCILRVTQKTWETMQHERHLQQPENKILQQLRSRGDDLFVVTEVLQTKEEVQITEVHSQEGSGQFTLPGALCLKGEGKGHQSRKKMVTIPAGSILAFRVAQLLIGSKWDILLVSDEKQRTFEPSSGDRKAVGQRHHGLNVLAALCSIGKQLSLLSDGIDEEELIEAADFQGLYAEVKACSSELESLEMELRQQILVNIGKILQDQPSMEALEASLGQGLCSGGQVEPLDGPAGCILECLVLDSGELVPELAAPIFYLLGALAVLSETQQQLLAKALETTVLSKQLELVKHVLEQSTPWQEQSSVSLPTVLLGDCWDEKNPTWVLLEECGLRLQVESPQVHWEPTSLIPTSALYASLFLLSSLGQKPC

[2] = molecular target: T2, recombinant GSDMD (Homo sapiens, UniProt P57764); assay: MMF-Yne labelling of recombinant GSDMD competed by fumarate, intact MS; assay type: binding; conditions: 1 μM GSDMD
T2 sequence (P57764 1-484): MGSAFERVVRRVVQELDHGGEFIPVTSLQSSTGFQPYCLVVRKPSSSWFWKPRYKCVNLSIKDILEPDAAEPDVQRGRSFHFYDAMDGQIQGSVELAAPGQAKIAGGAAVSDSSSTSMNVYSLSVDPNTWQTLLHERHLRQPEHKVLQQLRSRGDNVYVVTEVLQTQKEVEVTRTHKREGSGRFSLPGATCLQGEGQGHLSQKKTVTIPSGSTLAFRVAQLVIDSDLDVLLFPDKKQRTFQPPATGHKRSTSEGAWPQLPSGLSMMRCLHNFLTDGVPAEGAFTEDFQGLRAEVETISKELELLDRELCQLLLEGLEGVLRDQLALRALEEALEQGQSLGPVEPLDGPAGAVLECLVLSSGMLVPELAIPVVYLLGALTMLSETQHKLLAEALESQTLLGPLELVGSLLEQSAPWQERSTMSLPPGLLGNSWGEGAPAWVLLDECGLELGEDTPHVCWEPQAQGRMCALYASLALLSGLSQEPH
Method: FIGS. 11A-E. Fumarate binds to GSDMD. (A) Immunoblot analysis of MMF-Yne bound proteins using a streptavidin-IR dye. (B) Representative MS spectra of GSDMD identified in streptavidin pulldowns subjected to mass spec. (C-D) Immunoblot analysis (C) and densitometry analysis (D) of streptavidin-IR dye detecting MMF-Yne labelled recombinant GSDMD incubated with the indicated concentrations of fumarate and copper clicked using a biotin-azide. (E) Intact MS analysis of recombinant GSDMD (1 μM) incubated in a succination reaction with DMSO (vehicle) or fumarate (25 μM) for 2 hours. A-E Representative images from 2 independent experiments..
Intact mass analysis of GSDMD protein was carried out using an Acquity UPLC (Waters Corporation, Milford, Mass.) coupled to a Synapt G2-Si (Waters) quadrupole time-of-flight mass spectrometer fitted with an electrospray ionization source. Liquid chromatography was carried out with a 3.0×50 mm(4 μm) MAbPac RP column (Thermo Scientific, Waltham, Mass.) using mobile phase A and B containing 0.1% (v/v) formic acid in water, and 0.1% (v/v) formic acid in acetonitrile, respectively. A total of 0.6 μg sample was injected and the protein eluted using a linear gradient of 10 to 70% B over 7.0 minutes at a flow rate of 0.3 ml/min. […]

[3] = molecular target: T3, h.GSDME (Homo sapiens, UniProt O60443); assay: In vitro succination reaction with LC-MS/MS peptide mapping; assay type: binding
T3 sequence (O60443 1-496): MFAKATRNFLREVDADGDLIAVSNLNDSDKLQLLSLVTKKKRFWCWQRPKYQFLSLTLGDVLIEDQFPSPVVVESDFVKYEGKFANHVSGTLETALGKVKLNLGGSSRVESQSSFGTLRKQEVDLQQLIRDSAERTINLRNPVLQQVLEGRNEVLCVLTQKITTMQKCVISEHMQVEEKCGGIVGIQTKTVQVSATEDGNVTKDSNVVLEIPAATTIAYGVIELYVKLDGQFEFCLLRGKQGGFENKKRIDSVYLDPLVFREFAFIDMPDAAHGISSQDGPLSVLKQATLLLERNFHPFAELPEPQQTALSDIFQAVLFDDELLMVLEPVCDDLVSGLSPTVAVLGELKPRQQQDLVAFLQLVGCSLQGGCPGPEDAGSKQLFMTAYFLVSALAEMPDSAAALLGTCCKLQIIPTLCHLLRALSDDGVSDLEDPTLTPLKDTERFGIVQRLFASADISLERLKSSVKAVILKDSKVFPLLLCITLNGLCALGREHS

[4] = tested on: CD14+ monocytes; assay: LPS-Nig induced cell death and LDH release in primary CD14+ monocytes; assay type: cell-based, human; conditions: fumarate 25 μM
Method: FIGS. 6A-G. Fumarate inhibits pyroptosis in Human cells. (A-B) Representative images (A) and kinetic data (B) of SYTOX Orange and Hoechst-stained PMA-differentiated THP1 cells treated with LPS for 2 hours, DMSO (vehicle) or fumarate (25 μM) for 1 hour and nigericin (10 μM) for 6 hours. (C) LDH release from (A). (D-E) Kinetic cell death data of SYTOX Orange and Hoechst stained (D) or LDH assay of conditioned medium from primary CD14+ positive monocytes treated with LPS for 2 hours DMSO (vehicle) or fumarate (25 μM) for 1 hour and nigericin (10 μM) for 6 hours. (F) LC/MS quantification of fumarate in WT BMDMs treated with LPS for 2 hours, FHIN1 for 1 hour and nigericin for 1 hour. (G) Representative images of WT primary BMDMs stained with SYTOX Orange and Hoechst following treatment with LPS for 2 hours, DMSO (vehicle) or fumarate (25 μM) or FHIN1 (25 μM) for 1 hour and nigericin for a timecourse of 6 hours. A, B, D, G are representative of 3 independent experiments. C, E, F are pooled data from 3 independent experiments. ***, P<0.001, ****, P<0.00001 (Students t-test). Error bars show mean±SD (B, D) or SEM (C, E). Cells were plated, treated and incubated in phenol red free medium. Following treatment medium was collected and assessed for LDH release using the CytoTox96 non-radioactive cytotoxicity assay (Promega) as per manufacturer's instructions. […]

COC(=O)/C=C/C(=O)OC [Fumarate, Dimethyl fumarate]
2-monomethyl and 2-dimethyl succination sites of GSDMD in cells [1]: Cys^192; also recorded: Cys^57; also recorded: Cys^77
concentration at which maximum occupancy of GSDMD was achieved [2]: 25 µM
In vitro cysteine succination sites [3]: Cys^45
In vitro cysteine succination sites ([3]; listed as DMF): Cys235; also recorded: Cys371; also recorded: Cys408; also recorded: Cys489; also recorded: Cys45; also recorded: Cys156; also recorded: Cys180
LPS-Nig induced LDH release [4]: blocked
LPS-Nig induced cell death ([4]; SYTOX Orange): blocked
